Columns and labels:
PA 100036 = assay: Checkerboard combination study / MIC; format: cell-based, Pseudomonas aeruginosa; conditions: for MICCombination (antibiotic): MIC of antibiotic combined with compound 2; for FICI: antibiotic + compound 2; for MICAntibiotic: antibiotic alone
PA 260 = assay: Checkerboard combination study / MIC; format: cell-based, Pseudomonas aeruginosa; conditions: for MICCombination (antibiotic): MIC of antibiotic combined with compound 2; for FICI: antibiotic + compound 2; for MICAntibiotic: antibiotic alone
PA 264 = assay: Checkerboard combination study / MIC; format: cell-based, Pseudomonas aeruginosa; conditions: for MICCombination (antibiotic): MIC of antibiotic combined with compound 2; for FICI: antibiotic + compound 2; for MICAntibiotic: antibiotic alone; for FICAntibiotic: with compound 2
PA 91433 = assay: Checkerboard combination study / MIC; format: cell-based, Pseudomonas aeruginosa; conditions: PA 91433; for MICCombination (antibiotic): MIC of antibiotic combined with compound 2; for FICI: antibiotic + compound 2; for MICAntibiotic: antibiotic alone; for FICAntibiotic: with compound 2
PA 101243 = assay: Checkerboard combination study / MIC; format: cell-based, Pseudomonas aeruginosa; conditions: PA 101243; for MICCombination (antibiotic): MIC of antibiotic combined with compound 2; for FICI: antibiotic + compound 2; for MICAntibiotic: antibiotic alone
PAO200 = format: cell-based, Pseudomonas aeruginosa; conditions: for MIC of antibiotic alone in PAO200: PAO200 efflux-deficient
From the text: (§1) PAO200 is a tnexA-rnexB-oprM deletion strain while PAO750 lacks five important RND pumps (McxAB-OprM, MexCD-OprJ, MexEF-OprN, Mex JK, and MexXY) and the outer membrane protein OpmH (46, 47). Some of these pumps are homologues of broad substrate specificities that extrude different classes of antimicrobial agents and confer resistance on P. aeruginosa (48).
(§2) Antimicrobial Susceptibility Assay. The in vitro antimicrobial activity of all compounds/antibiotics against a panel of bacteria was evaluated by microbroth dilution method in accordance with the Clinical and Laboratory Standards Institute (CLSI) guidelines. Overnight grown bacterial cultures were diluted in saline to achieve a 0.5 McFarland turbidity, followed by 1:50 dilution in Mueller-Hinton broth (MHB) for inoculation to a final concentration of approximately 5×10^5CFU/mL. The antimicrobial agents were 2-fold serially diluted in MHB in a 96-well plate and incubated at 37° C. with equal volumes of inoculum for 18 h. The lowest concentration that prevented the visible growth of bacteria was defined as the MIC for each antimicrobial agent. The broth with or without bacterial cells was used as positive or negative control, respectively.
(§3) Checkerboard Assay. Combination studies with different antibiotics were performed in 96-well plates as previously described (22). Briefly, the antibiotic of interest was serially diluted in MHB along the abscissa while the adjuvant (newly synthesized conjugates) was serially diluted in MHB along the ordinate. This creates a 10×7 matrix wherein each well consists of a combination of different antibiotic and adjuvant concentrations. Overnight grown bacterial cultures were diluted in saline to achieve a 0.5 McFarland turbidity, followed by 1:50 dilution in Mueller-Hinton broth (MHB) for inoculation to a final concentration of approximately 5×10^5CFU/mL. Equal volume of this bacterial culture was then added to each well and incubated at 37° C. for 18 h. After incubation, the plates were read on EMax® Plus microplate reader (Molecular Devices, Sunnyvale, Calif., USA) at 590 nm. MIC was recorded as wells with the lowest concentration of drugs with no bacterial growth. The fractional inhibitory concentration (FIC) for each antibiotic was calculated by dividing the MIC of the antibiotic in the presence of adjuvant by the MIC of the antibiotic alone. Similarly, the FIC of adjuvant was calculated by dividing the MIC of the adjuvant in the presence of antibiotic by the MIC of the adjuvant alone. FIC index is the sum of both FICs. FIC indices of <0.5 were deemed synergistic; 0.5-4, no interaction; and >4, antagonistic.

PAO750 = format: cell-based, Pseudomonas aeruginosa; conditions: for MIC of antibiotic alone in PAO750: PAO750 efflux-deficient
From the text: as §1, §2, §3

[1] = test system: Galleria mellonella larvae; assay: Galleria mellonella tolerability study; conditions: 100 mg/kg and 200 mg/kg injected alone; after 48 h
Experimental: In vitro and in vivo discordances have been observed in antimicrobial chemotherapy, thus, therapeutic efficacy may not necessarily be reliably extrapolated based on in vitro data alone. […] Colistin (100 mg/kg), an antibiotic well known for its toxicity towards eukaryotes, served as a positive control for this experiment while PBS served as negative control. […] Survivability was scored for a total of 4 days.
In vivo larvae-infection model. In vivo synergistic effects were determined using Galleria mellonella infection model, as previously described (20). Briefly, worms were purchased from The Worm Lady® Live Feeder (ON, Canada), stored in their natural habitat at 16° C., and used within 10 days of delivery. The worms (average weight of 250 mg) were used for tolerability and efficacy studies. Tolerability study was performed by injecting 10 μL of antimicrobial agents only at concentrations equivalent to 100 mg/kg or 200 mg/kg. The worms (ten in each group) were incubated at 37° C. and monitored for 96 h. […] Overnight grown culture of respective MDR P. aeruginosa isolate was standardized to 0.5 McFarland standard and diluted in PBS to a final concentration of […]. 10 μL of this solution (5 CFU) was injected into each worm and incubated for 3 h at 37° C. […] Worms treated with 10 μL PBS or high concentrations of test antibiotics served as negative and positive control, respectively. The worms were incubated at 37° C. in Petri dishes lined with filter paper and scored for survivability every 6 h for up to 48 h. This experiment was repeated to give a total of thirty worms (n=30) in each case. Survival data curves were plotted using Kaplan-Meier survival analysis.

[2] = test system: MDR PA101885-challenged larvae; assay: Galleria mellonella infection model, efficacy; format: in vivo; conditions: aztreonam 25 mg/kg single dose; after 24 h
Experimental: In vivo synergistic effects were determined using Galleria mellonella infection model, as previously described (20). Briefly, worms were purchased from The Worm Lady® Live Feeder (ON, Canada), stored in their natural habitat at 16° C., and used within 10 days of delivery. The worms (average weight of 250 mg) were used for tolerability and efficacy studies. Tolerability study was performed by injecting 10 μL of antimicrobial agents only at concentrations equivalent to 100 mg/kg or 200 mg/kg. The worms (ten in each group) were incubated at 37° C. and monitored for 96 h. For efficacy studies, the virulence and bacterial load required to kill 100% of the worms within 12-18 h (with no treatment) was first determined, which is approximately 5 CFU. Overnight grown culture of respective MDR P. aeruginosa isolate was standardized to 0.5 McFarland standard and diluted in PBS to a final concentration of 5×10^2CFU/mL. 10 μL of this solution (5 CFU) was injected into each worm and incubated for 3 h at 37° C. […] Worms treated with 10 μL PBS or high concentrations of test antibiotics served as negative and positive control, respectively. The worms were incubated at 37° C. in Petri dishes lined with filter paper and scored for survivability every 6 h for up to 48 h. This experiment was repeated to give a total of thirty worms (n=30) in each case. Survival data curves were plotted using Kaplan-Meier survival analysis.

PA 262 = assay: Checkerboard combination study / MIC; format: cell-based, Pseudomonas aeruginosa

SMILES | MICCombination (antibiotic) (PA 100036) | FICI (PA 100036) | MICAntibiotic (PA 100036) | MICCombination (antibiotic) (PA 260) | FICI (PA 260) | MICAntibiotic (PA 260) | MICCombination (antibiotic) (PA 264) | FICI (PA 264) | MICAntibiotic (PA 264) | FICAntibiotic (PA 264) | MICCombination (antibiotic) (PA 91433) | FICI (PA 91433) | MICAntibiotic (PA 91433) | FICAntibiotic (PA 91433) | MICCombination (antibiotic) (PA 101243) | FICI (PA 101243) | MICAntibiotic (PA 101243) | MIC of antibiotic alone in PAO200 (PAO200) | MIC of antibiotic alone in PAO750 (PAO750) | survival of larvae [1] | further results
C[C@H]1[C@H](NC(=O)/C(=N\OC(C)(C)C(=O)O)c2csc(N)n2)C(=O)N1S(=O)(=O)O [Aztreonam] | 2 µg/mL | <0.16 | 16 µg/mL | 8 µg/mL | <0.19 | 64 µg/mL | 16 µg/mL | <0.28 | 64 µg/mL | 0.250 | 512 µg/mL | <1.06 | 512 µg/mL | 1.000 | 8 µg/mL | <0.26 | 32 µg/mL | 0.25 µg/mL | 0.5 µg/mL | 100% | FICAntibiotic (PA 101243; with compound 2): 0.250; MIC of antibiotic + Compound 2 in PAO200 (PAO200; + compound 2 ≤8.7 μM, PAO200): 0.016 µg/mL; MIC of antibiotic + Compound 2 in PAO750 (PAO750; + compound 2 ≤8.7 μM, PAO750): 0.031 µg/mL; survival of larvae [2]: 50%
CC(C)(O/N=C(\C(=O)N[C@@H]1C(=O)N2C(C(=O)[O-])=C(C[n+]3ccccc3)CS[C@H]12)c1csc(N)n1)C(=O)O [Ceftazidime] | 2 µg/mL | <0.28 | 8 µg/mL | 16 µg/mL | <0.52 | 32 µg/mL | 32 µg/mL | <0.28 | 128 µg/mL | 0.250 | 512 µg/mL | <0.50 | 1024 µg/mL | 0.500 | 8 µg/mL | <0.13 | 64 µg/mL | 2 µg/mL | 1 µg/mL | 100% | FICAntibiotic (PA 100036; with compound 2): 0.250; FICAntibiotic (PA 260; with compound 2): 0.500; MICCombination (antibiotic) (PA 262; MIC of antibiotic combined with compound 2): 4 µg/mL; FICI (PA 262; antibiotic + compound 2): <0.31; MICAntibiotic (PA 262; antibiotic alone): 16 µg/mL; FICAntibiotic (PA 262; with compound 2): 0.250

Reference: patent US20210290648A1, “Potentiation of B-Lactam Antibiotics and B-Lactam/B-Lactamase Inhibitor Combinations Against Multidrug and Extensively Drug-Resistant Pseudomonas Aeruginosa Using Non-Ribosomal Tobramycin-Cyclam Conjugates” (University of Manitoba, priority 2018, published 2021)
